Data from patent US6818647B2, “Method and composition for restoring diuretic and renal function” (CV Therapeutics, Inc, priority 1998, dated 2004).
Several values for one entry are separate records, joined by “and”; a condition that tells them apart may be missing. Equal entries are not always repeated. Entries after “also recorded” stand apart in the source; their conditions may differ.

How the values were obtained:
Micropuncture studies = type: in vivo; details: following administration of BG9719
Male Sprague-Dawley rats [1] = assay: Renal function of anesthetized rats after 0-3 days of furosemide, before and after BG9719 IV (Example 7); type: in vivo, rat
Experimental: Twenty four hours after their last dose, they were anesthetized and instrumented to measure renal function and hemodynamics.
We collected a 30 minute baseline urine and determined basal sodium excretion in these rats.
Twenty-four hours after the last dose was administered, the rats were anesthetized and instrumented to measure renal function. […] Urine was collected via an implanted bladder catheter.

Male Sprague-Dawley rats [2] = assay: Sustained i.v. infusion of diuretics in conscious catheterised rats: dose response, combinations, renal clearance (Example 2); type: in vivo, rat; details: for Equidiuretic dose / dose at which the maximum diuretic effect was reached / Potassium excretion / diuretic effect (urine flow): sustained i.v. infusion; for dose at which the maximum diuretic effect was reached / Potassium excretion / diuretic effect (urine flow): dose response; for Potassium excretion / diuretic effect (urine flow): single agents
Experimental: Male Sprague-Dawley rats were obtained from Charles River Labs (Wilmington, Del.). They were housed in a light-controlled room with a 12 h light/dark cycle and were allowed ad libitum access to food and water.
Catheters were implanted in the abdominal aorta and vena cava via the left femoral artery and vein under a mixture of ketamine hydrochloride (50 mg/kg) and acepromazine (0.2 mg/kg, i.m.) anesthesia. An additional medical grade Tygon tubing was placed in the he stomach at the left extremity of the greater curvature. A silastic-covered stainless steel cannula was implanted in the bladder. Details of surgery, pre and post-surgical care and the experimental set-ups have been described in detail previously (87). Experiments were conducted 4-5 days following surgery, by which time the rats had fully recovered and were gaining weight. During the recovery, the rats were housed individually and were accustomed to a plastic retainer (model ECU, Braintree Scientific, Inc., Braintree, Mass.).
Between 8:00-9:00 AM, rats were weighed and placed in the restrainer. The arterial line was connected to a Gilson polygraph via a Gould pressure transducer for the recording of blood pressure (MAP) and heart rate (HR); the venous line to infusion pumps for the infusion of vehicle and test agents; and the stomach tube to a 10 or 20 cc syringe to allow for the replacement of excess urinary loss. The bladder cannula was extended with a short length of PE tubing to permit collection of urine into preweighed tubes.
To replace normal fluid and electrolytes loss, heparinized (50 U/ml) ringer's solution was infused throughout the experiment via the arterial line and 5% dextrose during the equilibration and control period via the venous line, each at 10 μl/min. When excess fluid loss reached 2 ml, it was replaced via the gastric tube with room temperature Ringer's solution. A period of 45-60 min was allowed for equilibration in all studies, at the end of which a 0.5 ml blood sample was taken for measurement of hematocrit, plasma electrolytes and creatinine. This was followed by the various experimental procedures described below.
Group 1. Sustained I.V. infusion of diuretic agents. Urine was collected in 5 min periods throughout the experimental period. After equilibration, 3 collections were made to establish baseline. thirty min urine collections were made before and during infusion of test agent. […] At the end of experiments, the rats were weighed again and returned to their home cages.
Group 2. Sustained i.v. infusion of combinations diuretics. […] After the termination of infusion, urine flow was allowed to return to baseline, approximately 15-20 min. The rats were then weighed and returned to their home cages.
Group 3. […] (10%) and PAH (2%) were infused i.v. at 20 μl/min from the start. IN order to establish baseline values, two 20 min urine collections were performed following equilibration. One blood sample (500 μl) was taken in the middle of the second collection.
Urinary and plasma concentrations of […] and PAH were determined by spectrophotometry, electrolyte concentrations were measured using the Synchron ASB Clinical System (Beckman Instr. Inc., Brea, Calif.) and osmolality by an automatic osmometer (Model 2430, Precision Systems, Inc., Natick, Mass.). Renal clearance values were calculated using standard clearance formulae and expressed per 100 g body weight.
All values represent maximal changes, expressed as absolute values, and are reported throughout as group means+−SEM. Data from the does-response studies (groups 1-5) were analyzed using an analysis of variance for repeated measures, post-hoc comparisons were made with the Schette f-test. Analysis of variance (ANOVA) was used to analyze differences between the effects of various diuretics and their combinations (group 6) and the renal clearance data (group 7). A value of P<0.05 was considered statistically significant.

Male Sprague-Dawley rats [3] = assay: Natriuretic response to oral dosing in rats in metabolic cages (Examples 3, 5, 6); type: in vivo, rat; details: once-daily gavage, Days 1-5, furosemide 100 mg/kg or BG9719 1 mg/kg; urine 4 hours after dosing
Experimental: Urines were collected for 4 hours post dosing and the natriuretic response was determined. The data are expressed as uEq/hr.
FIG. 8: In the same rats from FIG. 7, we collected urine for 4 hours after dosing.
Twenty four male Sprague-Dawley rats were placed in metabolic cages to collect urines in order to assess the natriuretic response to orally administered compounds. […] Urines were collected for 4 hours after dosing. Urine volume was determined gravimetrically and urinary sodium concentration was determined by flame photometry.
The rats shown in Example 4 were placed in metabolic cages on Days 1 through 5 of dosing and urine was collected for 4 hours after dosing. Urine volume was determined gravimetrically and urinary sodium concentration was determined by flame photometry.
They were placed in metabolic cages and urines were collected for four hours after dosing. Urine volume was determined gravimetrically and urinary sodium concentration was determined by flame photometry.

adenosine A1 receptor [4] = molecular target: T1, adenosine A1 receptor (Homo sapiens, UniProt P30542); assay: IC50 for the adenosine A1 receptor; type: binding
T1 sequence (P30542 1-326): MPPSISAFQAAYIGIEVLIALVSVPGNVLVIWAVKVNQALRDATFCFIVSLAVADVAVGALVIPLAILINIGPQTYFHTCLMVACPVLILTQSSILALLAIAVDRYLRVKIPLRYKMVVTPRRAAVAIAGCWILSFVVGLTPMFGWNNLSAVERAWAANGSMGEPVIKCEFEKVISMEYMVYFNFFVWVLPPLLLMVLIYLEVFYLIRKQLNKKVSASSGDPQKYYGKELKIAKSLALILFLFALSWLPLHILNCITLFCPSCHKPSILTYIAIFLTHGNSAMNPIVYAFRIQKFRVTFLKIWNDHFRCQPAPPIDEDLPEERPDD

adenosine A1 receptor [5] = molecular target: T1, adenosine A1 receptor; details: other adenosine A1 receptor antagonists; cited from earlier work
[6] = system: patients with NYHA Class II or III CHF; assay: Renal function in CHF patients after single intravenous dose (Example 1); details: 0-2 hours, mean, single i.v. dose
[7] = renal clearance study, FUR 10 μg/kg/min i.v. for 90 min

Row | IC50 (adenosine A1 receptor [4]) | Structure (SMILES) | tubular flow rates (Micropuncture studies) | GFR after dosing in Day 3 furosemide rats (Male Sprague-Dawley rats [1]; BG9719 0.1 mg/kg IV after 3 days furosemide) | urinary sodium excretion (UNaV) after dosing (Male Sprague-Dawley rats [1]; BG9719 0.1 mg/kg IV, control rats and 3 Day Furo rats) | GFR after dosing versus baseline (Male Sprague-Dawley rats [1]; BG9719 0.1 mg/kg IV, rats with 0-3 days furosemide) | increase in GFR (Male Sprague-Dawley rats [2]; renal clearance study, 1 μg/kg/min i.v. for 90 min, not statistically significant) | absolute and fractional excretions of sodium (Male Sprague-Dawley rats [2]; renal clearance study, BG9719 1 or FUR 10 μg/kg/min i.v. for 90 min) | total urine output (Male Sprague-Dawley rats [2]; representative animal of FIG. 1, i.v. infusion 0.3-10 μg/kg/min) | Equidiuretic dose (Male Sprague-Dawley rats [2]) | dose at which the maximum diuretic effect was reached (Male Sprague-Dawley rats [2]) | Potassium excretion (Male Sprague-Dawley rats [2]) | diuretic effect (urine flow) (Male Sprague-Dawley rats [2]) | natriuretic response on repeated dosing (Male Sprague-Dawley rats [3]) | A1 vs. A2 selectivity (adenosine A1 receptor [5]) | basal GFR (Male Sprague-Dawley rats [1]; after 1 day of furosemide 100 mg/kg orally) | GFR (Male Sprague-Dawley rats [2]; [7]) | RBF (Male Sprague-Dawley rats [2]; [7]) | Urine volume [6]
1 | 1.15 nM | CCCn1c(=O)c2nc(C3CC4CC3C3OC43)[nH]c2n(CCC)c1=O [BG9719, 1,3-dipropyl-8-[5,6-exo-epoxy)-2(S) norbornyl] xanthine] | increased flow rates in both the proximal and distal tubules | recover to a level not different than normal rats | reaches maximum within the first fifteen minutes | increases in all groups | 13% | increased | 23.8 mL | 1 µg/kg/min | 3 µg/kg/min | not | does-dependent increase in urine flow | maintained across multiple dosing days |  |  |  |  | 
2 |  | NS(=O)(=O)c1cc2c(cc1Cl)NCNS2(=O)=O [HCTZ, hydrochlorothiazide] |  |  |  |  |  |  |  | 30 µg/kg/min | 20 µg/kg/min | significantly increased | only minor effects |  |  |  |  |  | 
3 |  | CCCn1c(=O)c2[nH]c(C34CC5CC(CC3C5)C4)nc2n(CCC)c1=O [KW 3902] |  |  |  |  |  |  |  |  |  |  |  |  | 150 fold |  |  |  | 
4 |  | NS(=O)(=O)c1cc(C(=O)O)c(NCc2ccco2)cc1Cl [furosemide] |  |  |  |  |  |  |  | 10 µg/kg/min | 100 µg/kg/min |  | twice as a potent diuretic as BG9719 | diminishes on repeated dosing |  | relatively normal; also recorded: fairly normal | significantly lowered | significantly lowered | increased and 1081 mL
